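1) Cells in 96-well plates. 2) Compound, 48 h, 5 concentrations. 3) Linear interpolation between surrounding doses. 4) Unreached endpoint = highest concentration. GI50 marks 50% less growth.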 Calls of active or inactive are those of the source. No stated cut-off is given here; in the data, active = GI50 up to about 1.1 µM and inactive = higher.
Experiments:
Assay in all cases: inhibition of tumour cell growth, NCI panel, 48 h
786-0 = test system: 786-0
A498 = test system: A498
A549 = test system: A549
ACHN = test system: ACHN
CAKI-1 = test system: CAKI-1
CCRF-CEM = test system: CCRF-CEM
COLO 205 = test system: COLO 205
DLD-1 = test system: DLD-1
DMS-114 = test system: DMS-114
DMS-273 = test system: DMS-273
EKVX = test system: EKVX
HCC 2998 = test system: HCC 2998
HCT-116 = test system: HCT-116
HCT-15 = test system: HCT-15
HL-60 = test system: HL-60
HOP-18 = test system: HOP-18
HOP-62 = test system: HOP-62
HOP-92 = test system: HOP-92
HT-29 = test system: HT-29
IGROV-1 = test system: IGROV-1
K562 = test system: K562
KM-20L2 = test system: KM-20L2
KM12 = test system: KM12
LOX IMVI = test system: LOX IMVI
LXFL 529 = test system: LXFL 529
M14 = test system: M14
M19-MEL = test system: M19-MEL
MOLT-4 = test system: MOLT-4
Malme-3M = test system: Malme-3M
NCI-H23 = test system: NCI-H23
NCI-H460 = test system: NCI-H460
OVCAR-3 = test system: OVCAR-3
OVCAR-4 = test system: OVCAR-4
OVCAR-5 = test system: OVCAR-5
OVCAR-8 = test system: OVCAR-8
RPMI-8226 = test system: RPMI-8226
RXF 393 = test system: RXF 393
SF-268 = test system: SF-268
SF-295 = test system: SF-295
SF-539 = test system: SF-539
SK-MEL-2 = test system: SK-MEL-2
SK-MEL-5 = test system: SK-MEL-5
SK-OV-3 = test system: SK-OV-3
SN12C = test system: SN12C
SNB-19 = test system: SNB-19
SNB-75 = test system: SNB-75
SNB-78 = test system: SNB-78
SW-620 = test system: SW-620
TK-10 = test system: TK-10
U-251 = test system: U-251
UACC-257 = test system: UACC-257
UACC-62 = test system: UACC-62
UO-31 = test system: UO-31
XF498 = test system: XF498
NCI-H226 = test system: NCI-H226
NCI-H522 = test system: NCI-H522
SK-MEL-28 = test system: SK-MEL-28
SR = test system: SR

SMILES: CC(C)(C)[Si](C)(C)OC1C(=O)C[C@H]2CCCC[C@@H]12 (stereo partly specified)
- GI50 (786-0): > 100 µM (inactive)
- GI50 (A498): > 100 µM (inactive)
- GI50 (A549): > 100 µM (inactive)
- GI50 (ACHN): > 100 µM (inactive)
- GI50 (CAKI-1): > 100 µM (inactive)
- GI50 (CCRF-CEM): > 100 µM (inactive)
- GI50 (COLO 205): > 100 µM (inactive)
- GI50 (DLD-1): > 100 µM (inactive)
- GI50 (DMS-114): > 100 µM (inactive)
- GI50 (DMS-273): > 100 µM (inactive)
- GI50 (EKVX): > 100 µM (inactive)
- GI50 (HCC 2998): > 100 µM (inactive)
- GI50 (HCT-116): > 100 µM (inactive)
- GI50 (HCT-15): > 100 µM
- GI50 (HL-60): 48.4 µM (inactive)
- GI50 (HOP-18): > 100 µM (inactive)
- GI50 (HOP-62): > 100 µM (inactive)
- GI50 (HOP-92): 20.2 µM (inactive)
- GI50 (HT-29): > 100 µM (inactive)
- GI50 (IGROV-1): > 100 µM (inactive)
- GI50 (K562): > 100 µM (inactive)
- GI50 (KM-20L2): > 100 µM (inactive)
- GI50 (KM12): > 100 µM (inactive)
- GI50 (LOX IMVI): > 100 µM (inactive)
- GI50 (LXFL 529): > 100 µM (inactive)
- GI50 (M14): > 100 µM (inactive)
- GI50 (M19-MEL): 87.9 µM (inactive)
- GI50 (MOLT-4): > 100 µM (inactive)
- GI50 (Malme-3M): > 100 µM (inactive)
- GI50 (NCI-H23): > 100 µM (inactive)
- GI50 (NCI-H460): > 100 µM (inactive)
- GI50 (OVCAR-3): > 100 µM (inactive)
- GI50 (OVCAR-4): > 100 µM (inactive)
- GI50 (OVCAR-5): > 100 µM (inactive)
- GI50 (OVCAR-8): > 100 µM (inactive)
- GI50 (RPMI-8226): > 100 µM (inactive)
- GI50 (RXF 393): > 100 µM (inactive)
- GI50 (SF-268): > 100 µM (inactive)
- GI50 (SF-295): > 100 µM (inactive)
- GI50 (SF-539): > 100 µM (inactive)
- GI50 (SK-MEL-2): > 100 µM (inactive)
- GI50 (SK-MEL-5): > 100 µM (inactive)
- GI50 (SK-OV-3): > 100 µM (inactive)
- GI50 (SN12C): > 100 µM (inactive)
- GI50 (SNB-19): > 100 µM (inactive)
- GI50 (SNB-75): > 100 µM (inactive)
- GI50 (SNB-78): > 100 µM (inactive)
- GI50 (SW-620): > 100 µM (inactive)
- GI50 (TK-10): > 100 µM (inactive)
- GI50 (U-251): > 100 µM (inactive)
- GI50 (UACC-257): > 100 µM (inactive)
- GI50 (UACC-62): > 100 µM (inactive)
- GI50 (UO-31): > 100 µM (inactive)
- GI50 (XF498): > 100 µM (inactive)

SMILES: C=C1C(=O)OC2C[C@H](C)C3CC(=O)C(C)=C3CC12 (stereo partly specified)
- GI50 (786-0): 13 µM (inactive)
- GI50 (A498): 19.5 µM (inactive)
- GI50 (A549): 24.5 µM (inactive)
- GI50 (ACHN): 12.1 µM (inactive)
- GI50 (CAKI-1): 5.09 µM (inactive)
- GI50 (CCRF-CEM): 3.44 µM (inactive)
- GI50 (COLO 205): 10.4 µM (inactive)
- GI50 (DLD-1): 7.38 µM (inactive)
- GI50 (DMS-114): 15 µM (inactive)
- GI50 (DMS-273): 17.1 µM (inactive)
- GI50 (EKVX): 16.3 µM (inactive)
- GI50 (HCC 2998): 15.5 µM (inactive)
- GI50 (HCT-116): 6.38 µM (inactive)
- GI50 (HCT-15): 11.2 µM
- GI50 (HL-60): 2.33 µM (inactive)
- GI50 (HOP-62): 23.4 µM (inactive)
- GI50 (HOP-92): 10.5 µM (inactive)
- GI50 (HT-29): 12.5 µM (inactive)
- GI50 (IGROV-1): 15.4 µM (inactive)
- GI50 (K562): 4.47 µM (inactive)
- GI50 (KM-20L2): 14.8 µM (inactive)
- GI50 (KM12): 16 µM (inactive)
- GI50 (LOX IMVI): 15 µM (inactive)
- GI50 (LXFL 529): 10.6 µM (inactive)
- GI50 (M14): 12.4 µM (inactive)
- GI50 (M19-MEL): 13.2 µM (inactive)
- GI50 (MOLT-4): 6.92 µM (inactive)
- GI50 (Malme-3M): 11.8 µM (inactive)
- GI50 (NCI-H226): 2.94 µM (inactive)
- GI50 (NCI-H23): 13.6 µM (inactive)
- GI50 (NCI-H460): 21.9 µM (inactive)
- GI50 (NCI-H522): 1.75 µM (inactive)
- GI50 (OVCAR-3): 12.1 µM (inactive)
- GI50 (OVCAR-4): 14.2 µM (inactive)
- GI50 (OVCAR-5): 15.1 µM (inactive)
- GI50 (OVCAR-8): 16.8 µM (inactive)
- GI50 (RPMI-8226): 4.45 µM (inactive)
- GI50 (RXF 393): 13.2 µM (inactive)
- GI50 (SF-268): 18.2 µM (inactive)
- GI50 (SF-295): 25.2 µM (inactive)
- GI50 (SF-539): 17.2 µM (inactive)
- GI50 (SK-MEL-28): 5.28 µM (inactive)
- GI50 (SK-MEL-2): 14.2 µM (inactive)
- GI50 (SK-MEL-5): 15.5 µM (inactive)
- GI50 (SK-OV-3): > 57 µM (inactive)
- GI50 (SN12C): 12.1 µM (inactive)
- GI50 (SNB-19): 32.9 µM (inactive)
- GI50 (SNB-75): 14.6 µM (inactive)
- GI50 (SNB-78): 16 µM (inactive)
- GI50 (SR): 5.56 µM (inactive)
- GI50 (SW-620): 4.81 µM (inactive)
- GI50 (TK-10): 15.8 µM (inactive)
- GI50 (U-251): 12.4 µM (inactive)
- GI50 (UACC-257): 13.1 µM (inactive)
- GI50 (UACC-62): 11.8 µM (inactive)
- GI50 (UO-31): 11.8 µM (inactive)
- GI50 (XF498): 16.5 µM (inactive)
